Test results from ChEMBL document CHEMBL3091380, “Dibenzoyl and isoflavonoid glycosides from Sophora flavescens: inhibition of the cytotoxic effect of D-galactosamine on human hepatocyte HL-7702” (2013).

Columns and labels:
[1] = Hepatoprotective activity in human HL-7702 cells assessed as inhibition of D-galactosamine-induced toxicity at 1x10'-5 M by MTT assay relative to control; type: functional; conditions: L02
L02 = assay: Hepatoprotective activity against D-galactosamine-induced toxicity in human HL-7702 cells assessed as survival rate at 1x10'-5 M by MTT assay relative to normal cell; type: functional; conditions: read-out: Survival

SMILES | inhibition at 10 µM [1] [%] | viability at 10 µM (L02) [%]
COc1ccc(C(=O)C(=O)c2ccc(O[C@@H]3O[C@H](CO[C@@H]4OC[C@@H](O)[C@H](O)[C@H]4O)[C@@H](O)[C@H](O)[C@H]3O)cc2O)cc1O | 27.1 | 61.3
COc1ccc(C(=O)C(=O)c2ccc(O[C@@H]3O[C@H](CO[C@@H]4OC[C@](O)(CO)[C@H]4O)[C@@H](O)[C@H](O)[C@H]3O)cc2O)cc1O | 52.4 | 74.7
COc1ccc(-c2coc3cc(O[C@@H]4O[C@H](CO[C@@H]5OC[C@](O)(CO)[C@H]5O)[C@@H](O)[C@H](O)[C@H]4O)ccc3c2=O)cc1O | 36.6 | 66.3
COc1cc(-c2coc3cc(O[C@@H]4O[C@H](CO[C@@H]5OC[C@@H](O)[C@H](O)[C@H]5O)[C@@H](O)[C@H](O)[C@H]4O)ccc3c2=O)ccc1O | 45.8 | 71.2
COc1ccc(-c2coc3cc(O[C@@H]4O[C@H](CO[C@@H]5OC[C@@H](O)[C@H](O)[C@H]5O)[C@@H](O)[C@H](O)[C@H]4O)ccc3c2=O)cc1O | 46.3 | 71.5
COC(=O)c1cc(OC)c2c(c1-c1c(CO)cc(OC)c3c1OCO3)OCO2 [BICYCLOL] | 29.4 | 62.5
